From PubChem BioAssay (NCI)
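In this assay, cells in 96-well plates receive the compound at five concentrations for 48 hours. Endpoints are linearly interpolated between the surrounding concentrations. TGI: total growth inhibition.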

Experiments:
Assay in all cases: NCI anticancer screen, dose series, 48 h
BT-549 breast = test system: BT-549 breast
IGROV1 ovarian = test system: IGROV1 ovarian
MCF7 breast = test system: MCF7 breast
MDA-MB-231 breast = test system: MDA-MB-231 breast
OVCAR-5 ovarian = test system: OVCAR-5 ovarian
RPMI-8226 leukemia = test system: RPMI-8226 leukemia
SK-MEL-5 melanoma = test system: SK-MEL-5 melanoma
UACC-257 melanoma = test system: UACC-257 melanoma
CCRF-CEM leukemia = test system: CCRF-CEM leukemia
SNB-75 CNS = test system: SNB-75 CNS

Row | Structure (SMILES) | TGI (BT-549 breast) | TGI (IGROV1 ovarian) | TGI (MCF7 breast) | TGI (MDA-MB-231 breast) | TGI (OVCAR-5 ovarian) | TGI (RPMI-8226 leukemia) | TGI (SK-MEL-5 melanoma) | TGI (UACC-257 melanoma) | TGI (CCRF-CEM leukemia) | TGI (SNB-75 CNS)
1 | O=C1C2SC34c5c2c2ccccc2n5CCC3CCCN14 (configuration not stated) | > 100 µM | > 100 µM | > 100 µM | > 100 µM | > 100 µM | > 100 µM | > 100 µM | 95.5 µM |  | 
2 | CCOC(=O)CCC(NC(=O)Cc1ccc(Nc2nc3cc(F)c(F)cc3nc2C(=O)OCC)cc1)C(=O)OCC (configuration not stated) | > 100 µM |  | > 100 µM | > 100 µM | > 100 µM |  | > 100 µM | > 100 µM | 46.9 µM | 77.2 µM
3 | COc1cccc(CCNC(=O)Cc2ccccc2CCO)c1 | > 100 µM | > 100 µM | > 100 µM | > 100 µM | > 100 µM |  | > 100 µM | > 100 µM | > 100 µM | > 100 µM
4 | COc1cc2c(cc1OC)C(CC1=C(c3ccccc3)CN3CCc4cc(OC)c(OC)cc4C3C1)NCC2 (configuration not stated) |  | 32.8 µM |  |  | 35.4 µM | 28.8 µM | 31.3 µM | 34.3 µM | 37.6 µM | 28 µM
5 | CC(=O)CCn1c(=S)sc2ccccc21 | > 100 µM | > 100 µM | > 100 µM | > 100 µM | > 100 µM |  | > 100 µM | > 100 µM | > 100 µM | > 100 µM
6 | CCOC1(OCC)C2C=CC1C(COS(=O)(=O)c1ccc(C)cc1)C2COS(=O)(=O)c1ccc(C)cc1 (configuration not stated) | > 100 µM | > 100 µM | > 100 µM | 69.5 µM | > 100 µM |  | 31 µM | 62.2 µM | > 100 µM | > 100 µM
7 | NC(N)=NS(=O)(=O)c1ccc(NNc2c3ccccc3nc3c(C(=O)Nc4ccc(S(=O)(=O)Nc5ncccn5)cc4)cccc23)cc1 |  | 44.6 µM | > 100 µM | > 100 µM | > 100 µM | > 100 µM | > 100 µM | > 100 µM | > 100 µM | > 100 µM
8 | O=C(Nc1ccccc1)c1cc(S(=O)(=O)NC2=NC(c3ccccc3)c3cc(Cl)ccc3N2)c(SSc2cc(Cl)c(C(=O)Nc3ccccc3)cc2S(=O)(=O)NC2=NC(c3ccccc3)c3cc(Cl)ccc3N2)cc1Cl (configuration not stated) | > 100 µM | > 100 µM | > 100 µM | > 83.6 µM | > 100 µM | > 100 µM | > 100 µM | > 100 µM |  | > 100 µM
9 | [N-]=[N+]=Nc1c([N+](=O)[O-])c(=O)n(-c2ccccc2)c2ccccc12 |  | 88.4 µM | 67 µM | 59.2 µM | > 100 µM | 56.2 µM | 59.5 µM | > 100 µM | 92.4 µM | 68.1 µM
10 | Cn1c(=O)c2c(ncn2CCNC(CO)C(O)c2ccc([N+](=O)[O-])cc2)n(C)c1=O (configuration not stated) | > 100 µM |  | > 100 µM | > 100 µM |  | > 100 µM | > 100 µM | > 100 µM | > 100 µM | 
11 | CCO/C(O)=C(/C(=N)N1CCOCC1)C(=O)Nc1ccc(F)cc1 | > 100 µM | > 100 µM | > 100 µM | > 100 µM | > 100 µM | > 100 µM |  | > 100 µM | > 100 µM | > 100 µM
12 | CO/N=C(\C(=O)OC(=NC1CCCCC1)NC1CCCCC1)c1csc(NC(c2ccccc2)(c2ccccc2)c2ccccc2)n1 | > 10 µM | > 10 µM | > 10 µM |  | > 10 µM | > 10 µM | > 10 µM | > 10 µM | > 10 µM | > 10 µM
13 | COc1cc(Nc2nc3ccccc3nc2C(=O)O)cc(OC)c1OC | > 100 µM | > 100 µM |  | > 100 µM | > 100 µM | > 100 µM | > 100 µM | > 100 µM | > 100 µM | > 100 µM
14 | O=C(O)CCCc1nc2c(n1Cc1ccccc1)C(=O)c1ccccc1C2=O |  | > 100 µM | > 100 µM | > 100 µM | > 100 µM | 68.8 µM |  | 80.1 µM | 43.8 µM | 
15 | NC(N)=NCCN1CC2CCC(CC2)C1 |  | > 100 µM |  | > 100 µM | > 100 µM | > 100 µM | > 100 µM | > 100 µM |  | 98.7 µM
16 | O=C(N/N=C(\c1ccccc1)c1ccccn1)NC1CCCCC1 | > 100 µM | > 100 µM |  | > 100 µM | > 100 µM | > 100 µM | > 100 µM | > 100 µM | > 100 µM | > 100 µM
17 | O=c1[nH]nnc2c1sc1ncccc12 | > 100 µM | > 100 µM | > 100 µM | > 100 µM | > 100 µM |  | > 100 µM | > 100 µM | > 100 µM | > 100 µM
18 | Cc1[nH]c(=O)nc2nc3ccc(Cl)cc3c(NCCNCCO)c12 | 30.5 µM | 25.4 µM | 26.6 µM | 24 µM | 26.1 µM | > 100 µM | 25.4 µM | 25 µM | 28.1 µM | 

Row | Structure (SMILES) | TGI (BT-549 breast) | TGI (IGROV1 ovarian) | TGI (MCF7 breast) | TGI (MDA-MB-231 breast) | TGI (OVCAR-5 ovarian) | TGI (RPMI-8226 leukemia) | TGI (SK-MEL-5 melanoma) | TGI (UACC-257 melanoma) | TGI (CCRF-CEM leukemia) | TGI (SNB-75 CNS)
19 | COc1cccc(C(=O)Oc2ccc(OS(=O)(=O)c3ccc(C)cc3)cc2)c1C#N |  | > 100 µM | > 100 µM | > 100 µM | > 100 µM | > 100 µM | 31.2 µM | 96.6 µM | > 100 µM | > 100 µM
20 | C=CCCON(C(=O)OC(C)(C)C)C(C)(C)C | > 100 µM | > 100 µM |  | > 100 µM | > 100 µM | > 100 µM | > 100 µM | > 100 µM | > 100 µM | > 100 µM
21 | CO/N=C(\C)c1ccc(Nc2nc3ccccc3c3occc23)cc1 | 31 µM | 31.7 µM | 31 µM | 25.9 µM | 31.5 µM | 43.4 µM | 29.8 µM | 31.4 µM | 42.2 µM | 
22 | Cc1ccc(/C=N/Nc2cc(C)c3cccc(C)c3n2)s1 | 20.8 µM | 22.2 µM | 18 µM |  | 28.2 µM | 67.4 µM | 23.9 µM | 58.9 µM | > 100 µM | > 100 µM
23 | CCCC(=O)NC(NC1CCCCC1)(C(=O)OCC)C(F)(F)F (configuration not stated) |  | > 100 µM | > 100 µM |  | > 100 µM | > 100 µM | > 100 µM | > 100 µM | > 100 µM | > 100 µM
24 | CCN(CC)Cc1ccc(C(=S)Nc2ccc(Cl)cc2)s1 | 19.7 µM | 24.1 µM | 25.5 µM |  | 23.7 µM | 39.6 µM | 16.9 µM | 18.1 µM | 34.1 µM | 
25 | COC[C@@H](N=CC(C)(C)C)C(C)C |  | > 100 µM | > 100 µM | > 100 µM | > 100 µM | > 100 µM | > 100 µM | > 100 µM | > 100 µM | > 100 µM
26 | CCCCCCNc1n[nH]c(=O)c2c1nnn2Cc1ccccc1 | > 100 µM |  | > 100 µM | > 100 µM | > 100 µM | > 100 µM | > 100 µM | > 100 µM | > 100 µM | 
27 | CC1(C)/C(=N\NC(N)=O)C2CCC1C2 (configuration not stated) | > 100 µM | > 100 µM | > 100 µM |  | > 100 µM | > 100 µM | > 100 µM | > 100 µM | > 100 µM | > 100 µM
28 | CO[C@@]12C[C@@H](C)C3=CCC(C)=C3CC1=C(C)C(=O)O2 | > 100 µM | > 100 µM |  | > 100 µM | > 100 µM | > 100 µM | > 100 µM | > 100 µM | > 100 µM | > 100 µM
29 | CCOC(=O)Nc1[nH]cc(-c2ccccc2)c1C#N |  | > 100 µM | > 100 µM | > 100 µM | > 100 µM | > 100 µM | > 100 µM |  | > 100 µM | > 100 µM
30 | CC1(C)[C@@H](Cn2ccc(=O)[nH]c2=O)CC[C@@]1(C)CO |  |  |  | > 100 µM | > 100 µM |  | > 100 µM | > 100 µM | > 100 µM | > 100 µM
31 | CCOC(=O)NC(Nc1ccc(C)cc1)(C(F)(F)F)C(F)(F)F | > 100 µM | > 100 µM | > 100 µM | > 100 µM | > 100 µM | > 100 µM | > 100 µM |  | > 100 µM | > 100 µM
32 | CN(CCSCCN(C)C(=O)OC(C)(C)C)C(=O)OC(C)(C)C | > 100 µM | > 100 µM | > 100 µM | > 100 µM | > 100 µM |  | > 100 µM | > 100 µM | > 100 µM | > 100 µM
33 | CC(C)(C)OC(=O)NC1CCCCC1NC(=O)C(=O)NC1CCCCC1NC(=O)OC(C)(C)C (configuration not stated) | > 100 µM | > 100 µM | > 100 µM | > 100 µM | > 100 µM | > 100 µM | > 100 µM | > 100 µM | > 100 µM | 
34 | Fc1ccc2c(c1)nc1n2C(c2c(Cl)cccc2Cl)SC1 (configuration not stated) | 30.5 µM | 27.1 µM | 32.2 µM | 30.5 µM | 28.9 µM | 87.7 µM | 21.1 µM | 34.3 µM |  | 25.9 µM
35 | CC(=O)Nc1ccc(N=Nc2c(O)c(S(=O)(=O)O)cc3cc(S(=O)(=O)O)ccc23)cc1 | > 100 µM | > 100 µM |  | > 100 µM | > 100 µM | > 100 µM | > 100 µM | > 100 µM |  | > 100 µM
